Data published in BindingDB's records for doi:10.1016/s0960-894x(98)00240-6 (Boehringer Ingelheim (Canada), 1999).

Test: Inhibitory activity against porcine pancreatic elastase(PPE)

Row | SMILES | IC50 [µM]
1 | C[C@@H](NC(=O)N1C(=O)CC1SCc1cccnc1)c1ccccc1 (stereo partly drawn) [2-Oxo-4-(pyridin-3-ylmethylsulfanyl)-azetidine-1-carboxylic acid ((R)-1-phenyl-ethyl)-amide] | 65
2 | C[C@@H](NC(=O)N1C(=O)CC1SCc1ccncc1)c1ccccc1 (stereo partly drawn) [2-Oxo-4-(pyridin-4-ylmethylsulfanyl)-azetidine-1-carboxylic acid ((R)-1-phenyl-ethyl)-amide] | 21
3 | CC(C)C[C@@H](COC1CC(=O)N1C(=O)NCc1ccccc1)NC(=O)[C@@H](NC(=O)OC(C)(C)C)C(C)(C)C (stereo partly drawn) [{(S)-1-[(S)-1-(1-Benzylcarbamoyl-4-oxo-azetidin-2-yloxymethyl)-3-methyl-butylcarbamoyl]-2,2-dimethyl-propyl}-carbamic acid tert-butyl ester] | > 75

Other lines, results leading:

Row | IC50 [µM] | SMILES
4 | > 75 | O=C1CC(SCc2ccccn2)N1C(=O)N[C@H](CO)c1ccccc1 (stereo partly drawn) [2-Oxo-4-(pyridin-2-ylmethylsulfanyl)-azetidine-1-carboxylic acid ((S)-2-hydroxy-1-phenyl-ethyl)-amide]
5 | 0.73 | CC[C@@H](NC(=O)N1C(=O)[C@@H](C)[C@@H]1SCc1ccccn1)c1ccccc1 [(3R,4S)-3-Methyl-2-oxo-4-(pyridin-2-ylmethylsulfanyl)-azetidine-1-carboxylic acid ((R)-1-phenyl-propyl)-amide]
